In patent EP0677522A1, “8-METHOXYQUINOLONECARBOXYLIC ACID DERIVATIVE” (priority 1992, dated 1994):
In brackets after ≈: the same amount, converted by molar mass.

Tests used:
Format in all cases: cell-based
[1] = test system: A.calcoaceticus IFO 13006; experiment: In vitro antibacterial activity (MIC), Japan Society of Chemotherapy Standard; conditions: Acinetobacter calcoaceticus, IFO13006; inoculated cells 10⁶ cells/ml
Experimental: (§1) The in vitro antibacterial activity (minimum inhibitory concentration, MIC, µg/ml) of the test compounds was determined according to Japan Society of Chemotherapy Standard [Chemotherapy, vol. 29, pp 76-79 (1981)].
(§2) Inoculated cells were 10⁶ cells/ml and the strain with * was incubated in a medium supplemented with 10% horse blood. The mark "1)" means quinolone resistant MRSA and "2)" means quinolone resistant bacteria.

[2] = test system: Acinetobacter calcoaceticus ATCC 13006; experiment: as above; conditions: ATCC13006, inoculated cells 10⁶ cells/ml
Experimental: as §1, §2

[3] = test system: Citrobacter freundii IFO 12681; experiment: as above; conditions: IFO12681, inoculated cells 10⁶ cells/ml
Experimental: as §1, §2

[4] = test system: Corynebacterium diphtheriae Tronto; experiment: as above; conditions: inoculated cells 10⁶ cells/ml, medium supplemented with 10% horse blood
Experimental: as §1, §2

E. faecalis EFY-204 = experiment: as above; conditions: Enterococcus faecalis, EFY204; quinolone resistant bacteria; inoculated cells 10⁶ cells/ml
Experimental: as §1, §2

E. faecium EFMY-28 = experiment: as above; conditions: Enterococcus faecium, EFMY28; inoculated cells 10⁶ cells/ml
Experimental: as §1, §2

[5] = test system: Enterobacter cloacae IFO 12937; experiment: as above; conditions: IFO12937, inoculated cells 10⁶ cells/ml
Experimental: as §1, §2

[6] = test system: Enterococcus faecalis LS-101; experiment: as above; conditions: LS101, inoculated cells 10⁶ cells/ml
Experimental: as §1, §2

[7] = test system: Escherichia coli NIHJ JC-2; experiment: as above; conditions: NIHJJC2, inoculated cells 10⁶ cells/ml
Experimental: as §1, §2

K.pneumoniae DT-S = experiment: as above; conditions: Klebsiella pneumoniae; inoculated cells 10⁶ cells/ml
Experimental: as §1, §2

Klebsiella pneumoniae DT = experiment: as above; conditions: inoculated cells 10⁶ cells/ml
Experimental: as §1, §2

L.monocytogenes VTU-206 = experiment: as above; conditions: Listeria monocytogenes, VTU206; inoculated cells 10⁶ cells/ml; medium supplemented with 10% horse blood
Experimental: as §1, §2

M.catarrhalis ATCC 25238 = experiment: as above; conditions: Moraxella catarrhalis, ATCC25238; inoculated cells 10⁶ cells/ml; medium supplemented with 10% horse blood
Experimental: as §1, §2

P.aeruginosa U-31 = experiment: as above; conditions: Pseudomonas aeruginosa, U31; inoculated cells 10⁶ cells/ml
Experimental: as §1, §2

[8] = test system: Proteus vulgaris IFO 3988; experiment: as above; conditions: IFO3988, inoculated cells 10⁶ cells/ml
Experimental: as §1, §2

[9] = test system: Pseudomonas aeruginosa IFO 12582; experiment: as above; conditions: IFO12582, inoculated cells 10⁶ cells/ml
Experimental: as §1, §2

S. aureus No.88 = experiment: as above; conditions: Staphylococcus aureus; quinolone resistant MRSA; inoculated cells 10⁶ cells/ml
Experimental: as §1, §2

[10] = test system: S. epidermidis ATCC 12228; experiment: as above; conditions: Staphylococcus epidermidis, ATCC12228; inoculated cells 10⁶ cells/ml
Experimental: as §1, §2

S. epidermidis SEY-223 = experiment: as above; conditions: Staphylococcus epidermidis, SEY223; quinolone resistant bacteria; inoculated cells 10⁶ cells/ml
Experimental: as §1, §2

S. viridans America = experiment: as above; conditions: Streptococcus viridans; inoculated cells 10⁶ cells/ml; medium supplemented with 10% horse blood
Experimental: as §1, §2

Shigella flexneri EW-10 = experiment: as above; conditions: EW10, inoculated cells 10⁶ cells/ml
Experimental: as §1, §2

[11] = test system: Streptococcus pyogenes C-203; experiment: as above; conditions: C203, inoculated cells 10⁶ cells/ml, medium supplemented with 10% horse blood
Experimental: as §1, §2

B. fragilis BFY-18 = experiment: Antibacterial effect against specific bacteria (MIC); conditions: Bacteroides fragilis, BFY18; same manner as Experimental Example 1
Experimental: as §1
(§3) In the same manner as in Experimental Example 1, the antibacterial effect against specific bacteria such as Chlamydia, Mycoplasma and acid-fast bacteria and anaerobic bacteria was determined.

[12] = test system: Bacteroides fragilis GAI 5560; experiment: as above; conditions: GAI5560, same manner as Experimental Example 1
Experimental: as §1, §3

[13] = test system: Chlamydia trachomatis D/UW-3Cx; experiment: as above; conditions: same manner as Experimental Example 1
Experimental: as §1, §3

[14] = test system: Mycobacterium smegmatis IFO 13167; experiment: as above; conditions: Mycolicibacterium smegmatis, IFO13167; same manner as Experimental Example 1
Experimental: as §1, §3

[15] = test system: Mycobacterium smegmatis IFO 3153; experiment: as above; conditions: Mycolicibacterium smegmatis, IFO3153; same manner as Experimental Example 1
Experimental: as §1, §3

[16] = test system: Mycoplasma pneumoniae ATCC 29343; experiment: as above; conditions: ATCC29343, same manner as Experimental Example 1
Experimental: as §1, §3

[17] = test system: Ureaplasma urealyticum ATCC 27618; experiment: as above; conditions: ATCC27618, same manner as Experimental Example 1
Experimental: as §1, §3

E. coli KC-14 = experiment: MIC of the infectious bacteria used for experimental infection; conditions: Escherichia coli, KC14; infectious strain of the mouse protection test
Experimental: as §1
(§4) Experimental infection was caused by intraperitoneal inoculation of respective bacteria to male mice. One hour after the inoculation, a test compound was orally administered to the mice. The therapeutic effect of each test compound was evaluated by reference to the 50% effective dose (ED₅₀) which was based on the survival ratio at 7 days after the administration according to the probit method [Proc. Soc. Exp. Med., Vol. 57, p 261-264 (1944)]. The minimum inhibitory concentration (MIC) of the infectious bacteria used was also determined. […]

S. aureus MRSA Y-238 = experiment: as above; conditions: Staphylococcus aureus, infectious strain of the mouse protection test
Experimental: as §1, §4

S. aureus Smith = experiment: as above; conditions: Staphylococcus aureus; infectious strain of the mouse protection test
Experimental: as §1, §4

SMILES: CC1COc2c(N3CCN(C)CC3)c(F)cc3c(=O)c(C(=O)O)cn1c23 (centres unmarked) [Comp. Ex. 2, 9-fluoro-2,3-dihydro-3-methyl-10-(4-methyl-1-piperazinyl)-7-oxo-7H-pyrido [1. 2. 3-de) [1.4] benzoxazine-6-carboxylic acid, reference compound]
- MIC [1]: 0.2 µg/mL (≈ 0.553 µM)
- MIC [2]: 0.2 µg/mL (≈ 0.553 µM)
- MIC [3]: 0.1 µg/mL (≈ 0.277 µM)
- MIC [4]: 0.39 µg/mL (≈ 1.08 µM)
- MIC (E. faecalis EFY-204): 50 µg/mL (≈ 138 µM)
- MIC (E. faecium EFMY-28): 3.13 µg/mL (≈ 8.66 µM)
- MIC [5]: 0.39 µg/mL (≈ 1.08 µM)
- MIC [6]: 0.39 µg/mL (≈ 1.08 µM)
- MIC [7]: 0.05 µg/mL (≈ 0.138 µM)
- MIC (K.pneumoniae DT-S): 0.05 µg/mL (≈ 0.138 µM)
- MIC (Klebsiella pneumoniae DT): 0.1 µg/mL (≈ 0.277 µM)
- MIC (L.monocytogenes VTU-206): 3.13 µg/mL (≈ 8.66 µM)
- MIC (M.catarrhalis ATCC 25238): 0.1 µg/mL (≈ 0.277 µM)
- MIC (P.aeruginosa U-31): 1.56 µg/mL (≈ 4.32 µM)
- MIC [8]: 0.1 µg/mL (≈ 0.277 µM)
- MIC [9]: 1.56 µg/mL (≈ 4.32 µM)
- MIC (S. aureus No.88): 50 µg/mL (≈ 138 µM)
- MIC [10]: 0.2 µg/mL (≈ 0.553 µM)
- MIC (S. epidermidis SEY-223): > 100 µg/mL
- MIC (S. viridans America): 3.13 µg/mL (≈ 8.66 µM)
- MIC (Shigella flexneri EW-10): 0.05 µg/mL (≈ 0.138 µM)
- MIC [11]: 1.56 µg/mL (≈ 4.32 µM)
- MIC (B. fragilis BFY-18): 1.56 µg/mL (≈ 4.32 µM)
- MIC [12]: 1.56 µg/mL (≈ 4.32 µM)
- MIC [13]: 0.39 µg/mL (≈ 1.08 µM)
- MIC [14]: 0.39 µg/mL (≈ 1.08 µM)
- MIC [15]: 0.39 µg/mL (≈ 1.08 µM)
- MIC [16]: 1.56 µg/mL (≈ 4.32 µM)
- MIC [17]: 3.13 µg/mL (≈ 8.66 µM)
- MIC (E. coli KC-14): 0.05 µg/mL
- MIC (S. aureus MRSA Y-238): > 100 µg/mL
- MIC (S. aureus Smith): 0.05 µg/mL
